Source: US12077503B2, “Substituted cyclic amides and their use as herbicides” (FMC CORPORATION, priority 2015, dated 2024)

Key:
Type in all cases: in vivo
[1] = tested on: ragweed (common ragweed, Ambrosia elatior); assay: Test A postemergence; conditions: for Ragweed plant response rating: visual injury rating on 0 to 100 scale (0 no effect, 100 complete control)
Summary of the method: (§1)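 Visual injury scores from 0, no effect, to 100, complete control, were assigned versus untreated controls roughly 10 d after treatment in the greenhouse. Test chemicals, formulated with surfactant in a non-phytotoxic solvent, were applied to planted seeds as a preemergence soil spray or postemergence to one- to two-leaf plants 2 to 10 cm tall, in loam–sand soil.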

Kochia (Kochia scoparia) [2] = assay: Test A postemergence; conditions: for Kochia plant response rating: visual injury rating on 0 to 100 scale (0 no effect, 100 complete control)
Summary of the method: as §1

[3] = tested on: Galium (catchweed bedstraw, Galium aparine); assay: Test A postemergence; conditions: for Galium plant response rating: visual injury rating on 0 to 100 scale (0 no effect, 100 complete control)
Summary of the method: as §1

[4] = tested on: pigweed (Amaranthus retroflexus); assay: Test A postemergence; conditions: for Pigweed plant response rating: visual injury rating on 0 to 100 scale (0 no effect, 100 complete control)
Summary of the method: as §1

[5] = tested on: wheat (Triticum aestivum); assay: Test A postemergence; conditions: for Wheat plant response rating: visual injury rating on 0 to 100 scale (0 no effect, 100 complete control)
Summary of the method: as §1

corn (Zea mays) = assay: Test A postemergence; conditions: for Corn plant response rating: visual injury rating on 0 to 100 scale (0 no effect, 100 complete control)
Summary of the method: as §1

[6] = tested on: blackgrass (Alopecurus myosuroides); assay: Test A postemergence; conditions: for Blackgrass plant response rating: visual injury rating on 0 to 100 scale (0 no effect, 100 complete control)
Summary of the method: as §1

[7] = tested on: giant foxtail (Setaria faberii); assay: Test A postemergence; conditions: for Foxtail, Giant plant response rating: visual injury rating on 0 to 100 scale (0 no effect, 100 complete control)
Summary of the method: as §1

[8] = tested on: barnyardgrass (Echinochloa crus-galli); assay: Test A postemergence; conditions: for Barnyardgrass plant response rating: visual injury rating on 0 to 100 scale (0 no effect, 100 complete control)
Summary of the method: as §1

[9] = tested on: ryegrass, Italian (Italian ryegrass, Lolium multiflorum); assay: Test A postemergence; conditions: for Ryegrass, Italian plant response rating: visual injury rating on 0 to 100 scale (0 no effect, 100 complete control)
Summary of the method: as §1

[10] = tested on: ducksalad (Heteranthera limosa); assay: Test B flooded paddy test; conditions: Flood, 250 g ai/ha; 0 to 100 scale where 0 is no effect and 100 is complete control; 13 to 15 d
Summary of the method: (§2)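 Compound goes directly into floodwater once pots are flooded 3 cm above soil, targeting plants at two leaves; the water depth is then held for the test duration. Plants sit 13–15 d in a greenhouse and are rated visually, 100 denoting complete control.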

rice (Oryra sativa) = assay: Test B flooded paddy test; conditions: Flood, 250 g ai/ha; 0 to 100 scale where 0 is no effect and 100 is complete control; 13 to 15 d
Summary of the method: as §2

[11] = tested on: sedge, umbrella (small-flower umbrella sedge, Cyperus difformis); assay: Test B flooded paddy test; conditions: Flood, 250 g ai/ha; 0 to 100 scale where 0 is no effect and 100 is complete control; 13 to 15 d
Summary of the method: as §2

[12] = tested on: barnyardgrass (Echinochloa crus-galli); assay: Test B flooded paddy test; conditions: Flood, 250 g ai/ha; 0 to 100 scale where 0 is no effect and 100 is complete control; 13 to 15 d
Summary of the method: as §2

[13] = tested on: ragweed (common ragweed, Ambrosia elatior); assay: Test A preemergence; conditions: for Plant response rating, Ragweed: 125 g ai/ha; for Ragweed plant response rating (0 to 100 scale, 0 is no effect, 100 is complete control): visual injury approx. 10 d
Summary of the method: as §1

Kochia (Kochia scoparia) [14] = assay: Test A preemergence; conditions: for Plant response rating, Kochia: 125 g ai/ha; for Kochia plant response rating (0 to 100 scale, 0 is no effect, 100 is complete control): visual injury approx. 10 d
Summary of the method: as §1

[15] = tested on: pigweed (Amaranthus retroflexus); assay: Test A preemergence; conditions: for Plant response rating, Pigweed: 125 g ai/ha; for Pigweed plant response rating (0 to 100 scale, 0 is no effect, 100 is complete control): visual injury approx. 10 d
[16] = tested on: giant foxtail (Setaria faberii); assay: Test A preemergence; conditions: for Plant response rating, Foxtail, Giant: 125 g ai/ha; for Foxtail, Giant plant response rating (0 to 100 scale, 0 is no effect, 100 is complete control): visual injury approx. 10 d
Summary of the method: as §1

[17] = tested on: barnyardgrass (Echinochloa crus-galli); assay: Test A preemergence; conditions: for Plant response rating, Barnyardgrass: 125 g ai/ha; for Barnyardgrass plant response rating (0 to 100 scale, 0 is no effect, 100 is complete control): visual injury approx. 10 d
Summary of the method: as §1

[18] = tested on: ryegrass, Italian (Italian ryegrass, Lolium multiflorum); assay: Test A preemergence; conditions: for Plant response rating, Ryegrass, Italian: 125 g ai/ha; for Ryegrass, Italian plant response rating (0 to 100 scale, 0 is no effect, 100 is complete control): visual injury approx. 10 d
Summary of the method: as §1

[19] = 500 g ai/ha, postemergence, 0 to 100 scale, 0 no effect, 100 complete control
[20] = Postemergence, 125 g ai/ha, visual injury, 0 to 100 scale (0 no effect, 100 complete control), approx. 10 d
[21] = preemergence, 0 to 100 scale (0 no effect, 100 complete control)
[22] = Preemergence, 500 g ai/ha, 0 is no effect, 100 is complete control
[23] = 125 g ai/ha, postemergence, approx. 10 d
[24] = Postemergence, 500 g ai/ha, 0 to 100 scale where 0 is no effect and 100 is complete control
[25] = Preemergence, visual injury after approximately 10 d, 0 to 100 scale where 0 is no effect and 100 is complete control

O=C1NCC(c2cccc(F)c2)C1C(=O)Nc1ccccc1C(F)(F)F (racemic) [Compound 376]
Plant response rating, Ragweed [1, 19]: 20
Plant response rating, Ragweed [1, 20]: 0
Plant response rating, Kochia (Kochia (Kochia scoparia) [2]; [19]): 20
Plant response rating, Kochia (Kochia (Kochia scoparia) [2]; [20]): 0
Plant response rating, Galium [3, 19]: 30
Plant response rating, Galium [3, 20]: 30
Plant response rating, Pigweed [4, 19]: 0
Plant response rating, Pigweed [4, 20]: 0
Plant response rating, Wheat [5, 19]: 0
Plant response rating, Wheat [5, 20]: 0
Plant response rating, Corn (corn (Zea mays); [19]): 30
Plant response rating, Corn (corn (Zea mays); [20]): 0
Plant response rating, Blackgrass [6, 19]: 40
Plant response rating, Blackgrass [6, 20]: 0
Plant response rating, Foxtail, Giant [7, 19]: 90
Plant response rating, Foxtail, Giant [7, 20]: 90
Plant response rating, Barnyardgrass [8, 19]: 90
Plant response rating, Barnyardgrass [8, 20]: 90
Plant response rating, Ryegrass, Italian [9, 19]: 20
Plant response rating, Ryegrass, Italian [9, 20]: 0
Plant response rating, Ducksalad [10]: 100
Plant response rating, Rice (rice (Oryra sativa)): 0
Plant response rating, Sedge, Umbrella [11]: 0
Plant response rating, Barnyardgrass [12]: 70
Plant response rating, Ragweed [13, 21]: 0
Ragweed plant response rating (0 to 100 scale) [13, 22]: 0
Plant response rating, Kochia (Kochia (Kochia scoparia) [14]; [21]): 0
Kochia plant response rating (0 to 100 scale) (Kochia (Kochia scoparia) [14]; [22]): 0
Plant response rating, Pigweed [15, 21]: 0
Pigweed plant response rating (0 to 100 scale) [15, 22]: 0
Plant response rating, Foxtail, Giant [16, 21]: 90
Foxtail, Giant plant response rating (0 to 100 scale) [16, 22]: 90
Plant response rating, Barnyardgrass [17, 21]: 90
Barnyardgrass plant response rating (0 to 100 scale) [17, 22]: 90
Plant response rating, Ryegrass, Italian [18, 21]: 0
Ryegrass, Italian plant response rating (0 to 100 scale) [18, 22]: 20

CC(=O)N1CC(c2cccc(C(F)(F)F)c2)C(C(=O)Nc2ccccc2F)C1=O (stereo not drawn) [Compound 503]
Ragweed plant response rating [1, 23]: 30
Plant response rating, Ragweed [1, 24]: 30
Kochia plant response rating (Kochia (Kochia scoparia) [2]; [23]): 0
Plant response rating, Kochia (Kochia (Kochia scoparia) [2]; [24]): 0
Galium plant response rating [3, 23]: 30
Plant response rating, Galium [3, 24]: 70
Pigweed plant response rating [4, 23]: 0
Plant response rating, Pigweed [4, 24]: 0
Wheat plant response rating [5, 23]: 0
Plant response rating, Wheat [5, 24]: 40
Corn plant response rating (corn (Zea mays); [23]): 20
Plant response rating, Corn (corn (Zea mays); [24]): 80
Blackgrass plant response rating [6, 23]: 30
Plant response rating, Blackgrass [6, 24]: 70
Foxtail, Giant plant response rating [7, 23]: 90
Plant response rating, Foxtail, Giant [7, 24]: 90
Barnyardgrass plant response rating [8, 23]: 90
Plant response rating, Barnyardgrass [8, 24]: 90
Ryegrass, Italian plant response rating [9, 23]: 40
Plant response rating, Ryegrass, Italian [9, 24]: 70
Plant response rating, Ducksalad [10]: 85
Plant response rating, Rice (rice (Oryra sativa)): 0
Plant response rating, Sedge, Umbrella [11]: 0
Plant response rating, Barnyardgrass [12]: 45
Plant response rating, Ragweed [13, 25]: 0
Ragweed plant response rating (0 to 100 scale, 0 is no effect, 100 is complete control) ([13]; Preemergence, 500 g ai/ha): 0
Plant response rating, Kochia (Kochia (Kochia scoparia) [14]; [25]): 0
Kochia plant response rating (0 to 100 scale, 0 is no effect, 100 is complete control) (Kochia (Kochia scoparia) [14]; Preemergence, 500 g ai/ha): 20
Plant response rating, Pigweed [15, 25]: 0
Pigweed plant response rating (0 to 100 scale, 0 is no effect, 100 is complete control) ([15]; Preemergence, 500 g ai/ha): 40
Plant response rating, Foxtail, Giant [16, 25]: 90
Foxtail, Giant plant response rating (0 to 100 scale, 0 is no effect, 100 is complete control) ([16]; Preemergence, 500 g ai/ha): 90
Plant response rating, Barnyardgrass [17, 25]: 90
Barnyardgrass plant response rating (0 to 100 scale, 0 is no effect, 100 is complete control) ([17]; Preemergence, 500 g ai/ha): 90
Plant response rating, Ryegrass, Italian [18, 25]: 0
Ryegrass, Italian plant response rating (0 to 100 scale, 0 is no effect, 100 is complete control) ([18]; Preemergence, 500 g ai/ha): 50

CC(C)c1ccc(C2CNC(=O)C2C(=O)Nc2ccccc2F)cc1 (stereo not drawn) [Compound 469]
Ragweed plant response rating [1, 23]: 0
Plant response rating, Ragweed [1, 24]: 0
Kochia plant response rating (Kochia (Kochia scoparia) [2]; [23]): 0
Plant response rating, Kochia (Kochia (Kochia scoparia) [2]; [24]): 0
Galium plant response rating [3, 23]: 0
Plant response rating, Galium [3, 24]: 0
Pigweed plant response rating [4, 23]: 0
Plant response rating, Pigweed [4, 24]: 0
Wheat plant response rating [5, 23]: 0
Plant response rating, Wheat [5, 24]: 0
Corn plant response rating (corn (Zea mays); [23]): 0
Plant response rating, Corn (corn (Zea mays); [19]): 0
Blackgrass plant response rating [6, 23]: 0
Plant response rating, Blackgrass [6, 19]: 40
Foxtail, Giant plant response rating [7, 23]: 20
Plant response rating, Foxtail, Giant [7, 24]: 60
Barnyardgrass plant response rating [8, 23]: 70
Plant response rating, Barnyardgrass [8, 19]: 80
Ryegrass, Italian plant response rating [9, 23]: 0
Plant response rating, Ryegrass, Italian [9, 24]: 20
Plant response rating, Ducksalad [10]: 70
Plant response rating, Rice (rice (Oryra sativa)): 0
Plant response rating, Sedge, Umbrella [11]: 0
Plant response rating, Barnyardgrass [12]: 40
Plant response rating, Ragweed [13, 25]: 0
Ragweed plant response rating (0 to 100 scale, 0 is no effect, 100 is complete control) ([13]; Preemergence, 500 g ai/ha): 0
Plant response rating, Kochia (Kochia (Kochia scoparia) [14]; [21]): 0
Kochia plant response rating (0 to 100 scale, 0 is no effect, 100 is complete control) (Kochia (Kochia scoparia) [14]; Preemergence, 500 g ai/ha): 0
Plant response rating, Pigweed [15, 25]: 0
Pigweed plant response rating (0 to 100 scale, 0 is no effect, 100 is complete control) ([15]; Preemergence, 500 g ai/ha): 0
Plant response rating, Foxtail, Giant [16, 21]: 80
Foxtail, Giant plant response rating (0 to 100 scale, 0 is no effect, 100 is complete control) ([16]; Preemergence, 500 g ai/ha): 90
Plant response rating, Barnyardgrass [17, 21]: 80
Barnyardgrass plant response rating (0 to 100 scale, 0 is no effect, 100 is complete control) ([17]; Preemergence, 500 g ai/ha): 90
Plant response rating, Ryegrass, Italian [18, 25]: 0
Ryegrass, Italian plant response rating (0 to 100 scale, 0 is no effect, 100 is complete control) ([18]; Preemergence, 500 g ai/ha): 0
